Results as given in patent US8785619B1, “Nucleosides and oligonucleotides for studies on reversal of cytotoxic and mutagenic damage of DNA potential diagnostics tools” (ChemGenes Corporation, priority 2003, dated 2014).

Experiments:
[1] = Kinetic studies of N6 protecting group deprotection in ammonia: migration of methyl group from N1 to N6 (Dimroth rearrangement), by TLC and HPLC; format: physicochemical
Source text: Prior to utilize the N-6 chloroacetyl protected N-1 methyl-2′-deoxyadenosine 3′-cyanoethyl phosphoramidite, we carried out a number of kinetic studies for the deprotection of chloroacetyl group and determination of presence of any N-6 methyl
Our subsequent studies to develop a ideal group which would be cleanly removed under aq ammonia deprotection condition and would have negligible amount of Dimroth rearrangement product as bye product.
FIG. 7. 5′-DMT-N^1-Methyl-N^6-FMOC-2′-deoxyadenosine-Kinetic Test for FMOC. Deprotection (20% methanolic ammonia at 37 C. Note: The N-6 methyl migration product is seen 2.27% after complete deprotection.
(required to knock off Phenoxy acetyl from N^6 position). To minimize this migration, we introduced N-FMOC group in place of N-PAC which reduced 20% methanolic ammonia hydrolysis time to only 4 hours at 37° C. but even in 4 hours, approx. 2.5% migration took place. This migration of methyl group from N-^1 to N^6 position was confirmed by TLC & HPLC.

[2] = cited from earlier work
[3] = 2M methanolic ammonia at room temperature

With `COc1ccc(C(OCC2OC(n3cnc4c(=NC(=O)OCC5c6ccccc6-c6ccccc65)n(C)cnc43)CC2OP(OCCC#N)N(C(C)C)C(C)C)(c2ccccc2)c2ccc(OC)cc2)cc1` (stereo not drawn) [5′-DMT-N^1-Methyl-N^6-FMOC-2′-deoxyadenosine-3′-cyanoethyl, n,n-diisopropyl phosphoramidite] the “presence of N-6 methyl-2′-deoxy adenosine” value ([1]; aq ammonia deprotection) was “less than 1%”.

With `COc1ccc(C(OC[C@H]2O[C@@H](n3cnc4c(=NC(=O)OCC5c6ccccc6-c6ccccc65)n(C)cnc43)C[C@@H]2O)(c2ccccc2)c2ccc(OC)cc2)cc1` [5′-DMT-N^1-Methyl-N^6-FMOC-2′-deoxyadenosine] the “N-6 methyl migration product after complete deprotection” value ([1]; FMOC deprotection, 20% methanolic ammonia at 37 C (FIG. 7)) was 2.27%.

For `Cn1cnc2c(ncn2[C@@H]2O[C@H](CO)[C@@H](O)[C@H]2O)c1=N` [N^1-methyl adenosine], the time stable [2, 3] is given as 3 days and the “time to total conversion into N6-methyl adenosine” value [2, 3] is given as 6 days.

In the case of `Cn1cnc2c(ncn2[C@H]2C[C@H](O)[C@@H](CO)O2)c1=N` [N^1-methyl-2′-deoxyadenosine], the “half life of conversion into N6-methyl-2′-deoxyadenosine” value ([2]; 25% aq. ammonia) is given as 36 h.

In the case of “N-6 chloroacetyl protected N-1 methyl-2′-deoxyadenosine 3′-cyanoethyl phosphoramidite”, the “N-6 methyl-2′-deoxy adenosine formation (Dimroth rearrangement product)” value ([1]; deprotection of chloroacetyl group) is reported as 8-10%.
